Patent publication US20120029187A1, “HALOALKYLSULFONANILIDE DERIVATIVE” (Nissan Chemical Industries, Ltd., priority 2009, published 2012)

Experiments:
Assay type in all cases: in vivo
[1] = system: barnyardgrass; test: Test Example 1: herbicidal effects in preemergence treatment under submerged conditions; conditions: dose 2.52 g/a
Procedure, shortened: (§1)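 Score 0–5 by mortality (5: ≥90%; 0: <5%), read 3 weeks post-application. Paddy-type cups: alluvial soil under 4 cm water, weeds seeded plus transplanted 2.5-leaf rice; diluted EC dosed onto water surface same day as sowing, g/a basis; greenhouse 25 to 30° C.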

[2] = system: bulrush; test: as above; conditions: dose 2.52 g/a
Procedure, shortened: as §1

[3] = system: ducksalad; test: as above; conditions: dose 2.52 g/a
Procedure, shortened: as §1

[4] = system: barnyardgrass; test: Test Example 2: herbicidal effects during the vegetation period under submerged conditions; conditions: treatment during the vegetation period under submerged conditions; dose 2.52 g/a
Procedure, shortened: (§2)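 Barnyardgrass, bulrush and ducksalad were co-sown in alluvial soil flooded to 4 cm and grown in a greenhouse at 25 to 30° C. At the 1- or 2-leaf stage, water-diluted emulsifiable concentrates went onto the water surface at set doses (g/a). Herbicidal effect was scored three weeks later on a graded scale.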

[5] = system: bulrush; test: as above; conditions: treatment during the vegetation period under submerged conditions; dose 2.52 g/a
Procedure, shortened: as §2

[6] = system: ducksalad; test: as above; conditions: treatment during the vegetation period under submerged conditions; dose 2.52 g/a
Procedure, shortened: as §2

[7] = system: common chickweed; test: Test Example 3: herbicidal effects in soil treatment; conditions: dose 3.2 g/a
Procedure, shortened: (§3)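 Seeds were sown in sterilized diluvial soil and covered with about 1.5 cm of soil. Compounds, formulated as emulsifiable concentrates and diluted with water, were sprayed evenly over the soil surface at set doses in g/a. Herbicidal effect was scored on a rating scale three weeks later.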

[8] = system: water foxtail; test: as above; conditions: dose 3.2 g/a
Procedure, shortened: as §3

[9] = system: large crabgrass; test: as above; conditions: dose 3.2 g/a
Procedure, shortened: as §3

[10] = system: velvetleaf; test: as above; conditions: dose 3.2 g/a
Procedure, shortened: as §3

[11] = system: barnyardgrass; test: as above; conditions: dose 3.2 g/a
Procedure, shortened: as §3

[12] = system: wild oat; test: as above; conditions: dose 3.2 g/a
Procedure, shortened: as §3

[13] = system: common ragweed; test: as above; conditions: dose 3.2 g/a
Procedure, shortened: as §3

[14] = system: common lambsquater; test: as above; conditions: dose 3.2 g/a
Procedure, shortened: as §3

[15] = system: Italian ryegrass; test: as above; conditions: dose 3.2 g/a
Procedure, shortened: as §3

[16] = system: posumbu knotweed; test: as above; conditions: dose 3.2 g/a
Procedure, shortened: as §3

[17] = system: giant foxtail; test: as above; conditions: dose 3.2 g/a
Procedure, shortened: as §3

[18] = system: redroot pigweed; test: as above; conditions: dose 3.2 g/a
Procedure, shortened: as §3

[19] = system: beadstraw; test: as above; conditions: dose 3.2 g/a
Procedure, shortened: as §3

[20] = system: common chickweed; test: Test Example 4: herbicidal effect in foliage treatment; conditions: dose 3.2 g/a, three weeks after application
Procedure, shortened: (§4)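 Seeds were spot-sown in boxes of sterilized diluvial soil and raised in a greenhouse (25 to 30° C) for 14 days before a single foliar application. Compounds were applied as emulsifiable concentrates diluted with water, at predetermined doses in g/a. Injury was graded three weeks post-spray.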

[21] = system: water foxtail; test: as above; conditions: dose 3.2 g/a, three weeks after application
Procedure, shortened: as §4

[22] = system: large crabgrass; test: as above; conditions: dose 3.2 g/a, three weeks after application
Procedure, shortened: as §4

[23] = system: velvetleaf; test: as above; conditions: dose 3.2 g/a, three weeks after application
Procedure, shortened: as §4

[24] = system: barnyardgrass; test: as above; conditions: dose 3.2 g/a, three weeks after application
Procedure, shortened: as §4

[25] = system: wild oat; test: as above; conditions: dose 3.2 g/a, three weeks after application
Procedure, shortened: as §4

[26] = system: common ragweed; test: as above; conditions: dose 3.2 g/a, three weeks after application
Procedure, shortened: as §4

[27] = system: common lambsquater; test: as above; conditions: dose 3.2 g/a, three weeks after application
Procedure, shortened: as §4

[28] = system: Italian ryegrass; test: as above; conditions: dose 3.2 g/a, three weeks after application
Procedure, shortened: as §4

[29] = system: posumbu knotweed; test: as above; conditions: dose 3.2 g/a, three weeks after application
Procedure, shortened: as §4

[30] = system: giant foxtail; test: as above; conditions: dose 3.2 g/a, three weeks after application
Procedure, shortened: as §4

[31] = system: redroot pigweed; test: as above; conditions: dose 3.2 g/a, three weeks after application
Procedure, shortened: as §4

[32] = system: beadstraw; test: as above; conditions: dose 3.2 g/a, three weeks after application
Procedure, shortened: as §4

[33] = system: transplanted rice; test: Test Example 1: preemergence treatment under submerged conditions, effect on crop; conditions: dose 2.52 g/a
Procedure, shortened: as §1

Structure (SMILES) | A: barnyardgrass, herbicidal effect (evaluation scale 0-5) [1] | B: bulrush, herbicidal effect (evaluation scale 0-5) [2] | C: ducksalad, herbicidal effect (evaluation scale 0-5) [3] | A: barnyardgrass, herbicidal effect (evaluation scale 0-5) [4] | B: bulrush, herbicidal effect (evaluation scale 0-5) [5] | C: ducksalad, herbicidal effect (evaluation scale 0-5) [6] | N: common chickweed, herbicidal effect (evaluation scale 0-5) [7] | G: water foxtail, herbicidal effect (evaluation scale 0-5) [8] | D: large crabgrass, herbicidal effect (evaluation scale 0-5) [9] | I: velvetleaf, herbicidal effect (evaluation scale 0-5) [10] | A: barnyardgrass, herbicidal effect (evaluation scale 0-5) [11] | F: wild oat, herbicidal effect (evaluation scale 0-5) [12] | J: common ragweed, herbicidal effect (evaluation scale 0-5) [13] | L: common lambsquater, herbicidal effect (evaluation scale 0-5) [14] | H: Italian ryegrass, herbicidal effect (evaluation scale 0-5) [15] | M: posumbu knotweed, herbicidal effect (evaluation scale 0-5) [16] | E: giant foxtail, herbicidal effect (evaluation scale 0-5) [17] | K: redroot pigweed, herbicidal effect (evaluation scale 0-5) [18] | O: beadstraw, herbicidal effect (evaluation scale 0-5) [19] | N: common chickweed, herbicidal effect [20] | also measured
CC1(C)OCN(Cc2ccccc2NS(=O)(=O)C(F)(F)F)C(=O)C1F (stereo not drawn) [II-32] | 5 (mortality of 90% or above (nearly complete death)) | 5 (mortality of 90% or above (nearly complete death)) | 5 (mortality of 90% or above (nearly complete death)) | 5 (mortality of 90% or above (nearly complete death)) | 5 (mortality of 90% or above (nearly complete death)) | 5 (mortality of 90% or above (nearly complete death)) | 3 (mortality of at least 40% and less than 70%) | 5 (mortality of 90% or above (nearly complete death)) | 5 (mortality of 90% or above (nearly complete death)) | 3 (mortality of at least 40% and less than 70%) | 5 (mortality of 90% or above (nearly complete death)) | 0 (mortality of less than 5% (almost ineffective)) | 5 (mortality of 90% or above (nearly complete death)) | 0 (mortality of less than 5% (almost ineffective)) | 5 (mortality of 90% or above (nearly complete death)) | 4 (mortality of at least 70% and less than 90%) | 4 (mortality of at least 70% and less than 90%) | 3 (mortality of at least 40% and less than 70%) | 3 (mortality of at least 40% and less than 70%) | 3 (mortality of at least 40% and less than 70%) | G: water foxtail, herbicidal effect [21]: 5 (mortality of 90% or above (nearly complete death)); D: large crabgrass, herbicidal effect [22]: 4 (mortality of at least 70% and less than 90%); I: velvetleaf, herbicidal effect [23]: 4 (mortality of at least 70% and less than 90%); A: barnyardgrass, herbicidal effect [24]: 5 (mortality of 90% or above (nearly complete death)); F: wild oat, herbicidal effect [25]: 2 (mortality of at least 20% and less than 40%); J: common ragweed, herbicidal effect [26]: 3 (mortality of at least 40% and less than 70%); L: common lambsquater, herbicidal effect [27]: 2 (mortality of at least 20% and less than 40%); H: Italian ryegrass, herbicidal effect [28]: 4 (mortality of at least 70% and less than 90%); M: posumbu knotweed, herbicidal effect [29]: 2 (mortality of at least 20% and less than 40%); E: giant foxtail, herbicidal effect [30]: 4 (mortality of at least 70% and less than 90%); K: redroot pigweed, herbicidal effect [31]: 1 (mortality of at least 5% and less than 20%); O: beadstraw, herbicidal effect [32]: 4 (mortality of at least 70% and less than 90%); a: transplanted rice, effect on crop (evaluation scale 0-5) [33]: 0 (mortality of less than 5% (almost ineffective))
CC(C)COC(=O)N(c1ccccc1CN1CC(C)OCC1=O)S(=O)(=O)C(F)(F)F (stereo not drawn) [Compound I-9] | 5 (mortality of 90% or above (nearly complete death)) | 5 (mortality of 90% or above (nearly complete death)) | 5 (mortality of 90% or above (nearly complete death)) | 5 (mortality of 90% or above (nearly complete death)) | 5 (mortality of 90% or above (nearly complete death)) | 5 (mortality of 90% or above (nearly complete death)) | 5 (mortality of 90% or above (nearly complete death)) | 5 (mortality of 90% or above (nearly complete death)) | 5 (mortality of 90% or above (nearly complete death)) | 5 (mortality of 90% or above (nearly complete death)) | 5 (mortality of 90% or above (nearly complete death)) | 3 (mortality of at least 40% and less than 70%) | 5 (mortality of 90% or above (nearly complete death)) | 0 (mortality of less than 5% (almost ineffective)) | 3 (mortality of at least 40% and less than 70%) | 0 (mortality of less than 5% (almost ineffective)) | 4 (mortality of at least 70% and less than 90%) | 4 (mortality of at least 70% and less than 90%) | 4 (mortality of at least 70% and less than 90%) | 3 (mortality of at least 40% and less than 70%) | G: water foxtail, herbicidal effect [21]: 5 (mortality of 90% or above (nearly complete death)); D: large crabgrass, herbicidal effect [22]: 5 (mortality of 90% or above (nearly complete death)); I: velvetleaf, herbicidal effect [23]: 5 (mortality of 90% or above (nearly complete death)); A: barnyardgrass, herbicidal effect [24]: 5 (mortality of 90% or above (nearly complete death)); F: wild oat, herbicidal effect [25]: 0 (mortality of less than 5% (almost ineffective)); J: common ragweed, herbicidal effect [26]: 4 (mortality of at least 70% and less than 90%); L: common lambsquater, herbicidal effect [27]: 0 (mortality of less than 5% (almost ineffective)); H: Italian ryegrass, herbicidal effect [28]: 3 (mortality of at least 40% and less than 70%); M: posumbu knotweed, herbicidal effect [29]: 0 (mortality of less than 5% (almost ineffective)); E: giant foxtail, herbicidal effect [30]: 3 (mortality of at least 40% and less than 70%); K: redroot pigweed, herbicidal effect [31]: 2 (mortality of at least 20% and less than 40%); O: beadstraw, herbicidal effect [32]: 4 (mortality of at least 70% and less than 90%); a: transplanted rice, effect on crop (evaluation scale 0-5) [33]: 0 (mortality of less than 5% (almost ineffective))
